Test system: Dermanyssus gallinae
Experiment: Miticidal effect against Dermanyssus gallinae (Pasteur pipette residual contact test, Test Example 1)
Format: in vivo
Settings: single agent, sucking adult mites, 25° C.
Description: Miticidal Effect Against Dermanyssus gallinae
The tip of a Pasteur pipette was sealed with Parafilm, and a sample compound diluted with acetone to a designated concentration was poured into the pipette from its top. The Parafilm in the tip of the pipette was removed one min after the pouring to discharge the test solution, and the pipette was air dried. Thereafter, an absorbent cotton was inserted into the upper end of the pipette, and sucking adult mites of Dermanyssus gallinae were released in the pipette. The tip of the pipette was sealed with Hematoseal, and the pipette was then placed in a desiccator containing a saturated ammonium sulfate solution in its bottom and was stored under fully darkened conditions at 25° C. The mites were observed under a stereomicroscope 4 hr after and 24 hr after the treatment to judge whether the mites were dead or survived, followed by determination of the miticidal rate (%).

Compound | Miticidal rate 4 hr after treatment (50 ppm) | Miticidal rate 24 hr after treatment (50 ppm) | Miticidal rate 4 hr after treatment (5 ppm) | Miticidal rate 24 hr after treatment (5 ppm)
CC1(C)C(C=C(Cl)Cl)C1C(=O)OC(C#N)c1ccc(F)c(Oc2ccccc2)c1 (stereo not shown) [Cyfluthrin, cyfluthrin] | 0% | 0% |  | 
COC(=O)Oc1c(C)c(C)nc2ccc(F)c(F)c12 [Compound 25, 2,3-dimethyl-4-methoxycarbonyloxy-5,6-difluoroquinoline] |  |  | 70% | 80%
CC1(C)C(C=C(Cl)Cl)C1C(=O)OCc1cccc(Oc2ccccc2)c1 (stereo not shown) [Permethrin, permethrin] | 0% | 0% |  | 
CC1(C)C(C=C(Cl)c2ccc(Cl)cc2)C1C(=O)OC(C#N)c1ccc(F)c(Oc2ccccc2)c1 (stereo not shown) [Flumethrin, flumethrin] | 5% | 10% |  | 
CCc1nc2ccc(F)c(F)c2c(OC(=O)C2CC2)c1C [Compound 2, 2-ethyl-3-methyl-4-cyclopropanecarbonyloxy-5,6-difluoroquinoline] |  |  | 40% | 50%

Source: US20040077602A1, “Mixture composition for controlling ectoparasites” (Meiji Seika Kaisha, Ltd., priority 2002, published 2004)
